Measured values published in ChEMBL document CHEMBL5247612, “Medicinal chemistry strategies targeting PRMT5 for cancer therapy” (Eur J Med Chem, 2022).
pIC50: −log10 of the molar value.

What was measured:
[1] = target: T1, Protein arginine N-methyltransferase 5 (Homo sapiens, UniProt O14744); assay: Inhibition of PRMT5 human PRMT5 using Biotinylated H4 derived peptide and [3H]-SAM as substrate by radioactive methylation assay
[2] = target: T1, Protein arginine N-methyltransferase 5; assay: Inhibition of PRMT5 human PRMT5 using [3H]-SAM as substrate by radioactive methylation assay
[3] = target: T2, Protein arginine N-methyltransferase 1 (Homo sapiens, UniProt Q99873); assay: Inhibition of human PRMT1 using H4R3 S1ac and [3H]-SAM as substrate by AlphaLISA assay
[4] = target: T1, Protein arginine N-methyltransferase 5; assay: Inhibition of human PRMT5 using H4R3 S1ac and [3H]-SAM as substrate by AlphaLISA assay
[5] = target: T1, Protein arginine N-methyltransferase 5; assay: Inhibition of PRMT5 (unknown origin) by AlphaLISA assay
A-375 [6] = assay: Antiproliferation activity against human A-375 cells assessed as cell growth inhibition; assay type: functional, cell-based
Z-138 = assay: Antiproliferative activity against human Z138 cells assessed as cell growth inhibition measured every 4 days upto 8 days by Cell Titer-Glo Luminescent Cell Viability kit method; assay type: functional, cell-based
A-375 [7] = assay: Anticancer activity against human A-375 cells in xenograft model assessed as tumor growth inhibition at 10 mg/kg, qd on a 4 day-on/3 day-off schedule for 26 days relative to control; assay type: functional; settings: A-375, 624 h, time 26 day, read-out: TGI
[8] = target: T2, Protein arginine N-methyltransferase 1; assay: Inhibition of human PRMT1 by fluorescence-based SAHH-coupled assay
[9] = Inhibition of Trypanosoma brucei PRMT7 by fluorescence-based SAHH-coupled assay
[10] = target: T1, Protein arginine N-methyltransferase 5; assay: Inhibition of PRMT5 (unknown origin) assessed as enzymatic activity by AlphaLISA assay
[11] = target: T1, Protein arginine N-methyltransferase 5; assay: Inhibition of human PRMT5 by fluorescence-based SAHH-coupled assay
[12] = target: T3, Histone-arginine methyltransferase CARM1 (Homo sapiens, UniProt Q86X55); assay: Inhibition of human PRMT4 by fluorescence-based SAHH-coupled assay
T3 sequence (Q86X55 whole entry): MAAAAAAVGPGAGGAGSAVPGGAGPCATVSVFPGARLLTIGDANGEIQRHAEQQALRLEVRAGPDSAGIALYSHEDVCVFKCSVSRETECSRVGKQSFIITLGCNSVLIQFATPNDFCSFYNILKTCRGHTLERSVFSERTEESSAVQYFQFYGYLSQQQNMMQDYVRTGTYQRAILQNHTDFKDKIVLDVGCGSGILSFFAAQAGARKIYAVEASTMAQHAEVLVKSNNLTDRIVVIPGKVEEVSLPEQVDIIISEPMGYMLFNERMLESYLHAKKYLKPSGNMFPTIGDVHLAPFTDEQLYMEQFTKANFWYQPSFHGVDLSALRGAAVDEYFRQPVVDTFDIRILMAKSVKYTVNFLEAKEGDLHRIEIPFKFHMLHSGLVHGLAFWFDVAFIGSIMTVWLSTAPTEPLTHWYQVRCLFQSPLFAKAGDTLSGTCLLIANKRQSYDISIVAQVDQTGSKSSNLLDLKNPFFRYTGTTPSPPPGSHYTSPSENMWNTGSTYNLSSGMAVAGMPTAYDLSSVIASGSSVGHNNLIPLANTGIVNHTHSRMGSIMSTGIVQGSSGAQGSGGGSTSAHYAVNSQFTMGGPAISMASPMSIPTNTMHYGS

T2 sequence (Q99873 whole entry): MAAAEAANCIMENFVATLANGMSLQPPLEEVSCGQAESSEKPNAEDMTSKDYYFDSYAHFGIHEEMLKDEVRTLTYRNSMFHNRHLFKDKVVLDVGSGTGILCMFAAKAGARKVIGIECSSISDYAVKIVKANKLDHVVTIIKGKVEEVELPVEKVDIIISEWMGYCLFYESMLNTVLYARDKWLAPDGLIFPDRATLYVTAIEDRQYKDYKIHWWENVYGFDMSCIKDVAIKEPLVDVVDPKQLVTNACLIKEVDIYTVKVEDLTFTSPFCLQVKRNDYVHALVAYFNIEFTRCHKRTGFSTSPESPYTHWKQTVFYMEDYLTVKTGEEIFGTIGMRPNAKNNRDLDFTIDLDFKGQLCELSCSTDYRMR
T1 sequence (O14744 whole entry): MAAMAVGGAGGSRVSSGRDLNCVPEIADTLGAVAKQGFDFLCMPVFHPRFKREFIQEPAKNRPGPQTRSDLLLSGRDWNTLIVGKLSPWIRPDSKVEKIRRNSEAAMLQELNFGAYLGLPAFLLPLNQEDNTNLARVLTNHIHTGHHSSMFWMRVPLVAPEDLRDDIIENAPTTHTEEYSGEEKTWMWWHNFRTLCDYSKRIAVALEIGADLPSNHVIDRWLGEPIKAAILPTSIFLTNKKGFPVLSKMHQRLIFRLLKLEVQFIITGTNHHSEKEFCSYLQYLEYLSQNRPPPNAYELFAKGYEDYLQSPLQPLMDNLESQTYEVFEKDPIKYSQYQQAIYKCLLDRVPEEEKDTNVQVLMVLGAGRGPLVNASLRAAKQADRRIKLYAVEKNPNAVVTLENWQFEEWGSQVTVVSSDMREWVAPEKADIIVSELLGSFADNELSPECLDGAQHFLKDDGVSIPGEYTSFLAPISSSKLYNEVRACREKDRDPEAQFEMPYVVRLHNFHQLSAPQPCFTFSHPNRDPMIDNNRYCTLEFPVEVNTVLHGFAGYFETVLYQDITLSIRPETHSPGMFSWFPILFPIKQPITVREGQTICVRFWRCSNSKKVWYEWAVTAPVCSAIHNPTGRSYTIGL

SMILES: Cc1ccc2[nH]c3c(c2c1)CCCC3NCCCOc1ccc(F)cc1 (centres undefined)
- pIC50 [1]: 5.77

SMILES: O=[N+]([O-])c1cccc(-c2cn(CC(O)CN3CCc4ccccc4C3)nn2)c1 (centres undefined)
- pIC50 [2]: 5.26

SMILES: Cc1ccc(C2=NC(=O)/C(=C/c3ccc(O)c(O)c3)S2)cc1
- pIC50 [3]: 5.00
- pIC50 [4]: 6.11

SMILES: CCOC(=O)c1c(NC(=O)CSc2nnc3c4ccccc4n(CCc4ccccc4)c3n2)sc2c1CCN(C)C2
- pIC50 [5]: 5.19

SMILES: Nc1ncnc2c1ccn2[C@@H]1O[C@H]([C@H](O)c2ccccc2)[C@@H](O)[C@H]1O
- pIC50 (A-375 [6]): 7.50

SMILES: COc1ccc(OC)c(NC(=O)CSc2nnc3c4ccccc4c4ccccc4c3n2)c1
- pIC50 [5]: 4.57

SMILES: OC(CN1CCc2ccccc2C1)Cn1cc(-c2cccc(NC3CCC3)c2)nn1 (centres undefined)
- pIC50 (Z-138): 5.59
- pIC50 [2]: 6.14

SMILES: Nc1ncnc2c1ccn2[C@@H]1O[C@H]([C@H](O)c2ccc(Cl)cc2)[C@@H](O)[C@H]1O
- pIC50 (A-375 [6]): 7.97
- inhibition in vivo at 10 mg/kg (A-375 [7]): 64%

SMILES: COc1cccc(/C=N/c2ccc(O)c(-c3nc4cc(C)ccc4o3)c2)c1O
- pIC50 [5]: 5.09

SMILES: N=C(N)NCCC[C@H](N)C(=O)NCC(=O)N[C@H](CCNC(=N)NCSC[C@H]1O[C@@H](n2cnc3c(N)ncnc32)[C@H](O)[C@@H]1O)C(N)=O
- pIC50 [8]: 5.77
- pIC50 [9]: 6.23

SMILES: COC(=O)c1ccccc1NC(=O)CCN1CCc2ccccc2C1
- pIC50 [10]: 4.47

SMILES: C[C@@H]1[C@H](O)[C@@H](CSCCCNC(=N)NCCCC[C@@H](N)C(N)=O)O[C@H]1n1cnc2c(N)ncnc21
- pIC50 [8]: 5.52
- pIC50 [9]: 4.70

SMILES: COc1cc(Cl)cc(/C=C2\SC(c3ccc(C)cc3)=NC2=O)c1O
- pIC50 [4]: 4.86

SMILES: C[C@@](O)(c1ccc(Cl)cc1)[C@H]1O[C@@H](n2ccc3c(N)ncnc32)[C@H](O)[C@@H]1O
- pIC50 (A-375 [6]): 7.36

SMILES: Nc1cccc(-c2cn(CC(O)CN3CCc4ccccc4C3)nn2)c1 (centres undefined)
- pIC50 [2]: 4.47

SMILES: COC(=O)c1ccccc1NC(=O)CSc1nc2ccc(CO)cc2[nH]1
- pIC50 [1]: 6.48

SMILES: CCc1ccc2oc(-c3cc(/N=C/c4cccc(C)c4O)ccc3O)nc2c1
- pIC50 [5]: 4.22

SMILES: CCN(CC)CCNC1CCCc2c1[nH]c1ccc(C)cc21 (centres undefined)
- pIC50 [1]: 5.24

SMILES: COc1cc(Br)cc(/C=C2\SC(c3ccc(C)cc3)=NC2=O)c1O
- pIC50 [4]: 5.18

SMILES: N=C(N)NCCC[C@H](N)C(=O)NCC(=O)N[C@H](CCNC(=N)NCCSC[C@H]1O[C@@H](n2cnc3c(N)ncnc32)[C@H](O)[C@@H]1O)C(N)=O
- pIC50 [8]: 5.23
- pIC50 [11]: 9.38
- pIC50 [9]: 6.08
- pIC50 [12]: 8.55

SMILES: OC(CN1CCc2ccccc2C1)Cn1cc(-c2cccc(NC3CCOCC3)c2)nn1 (centres undefined)
- pIC50 [2]: 5.62
